In US9834526B2 (MERCK SHARP & DOHME CORP., priority 2013, dated 2017):

The molecules below were run against T1, wildtype HIV-1 protease (Human immunodeficiency virus type 1 group M subtype B, UniProt P04585) (assay: Inhibition of microbial expressed HIV protease (Pepcleav)). Details: wild type HIV-1 protease expressed in E. coli, 20 pM enzyme, 400 micromolar peptide substrate, pH 5.5, LC-MS readout; mean of at least two independent experiments.
T1 construct: preincubated with the HIV-1 protease (wild type) enzyme in assay buffer; made in house; host or cells: Escherichia coli
Type: biochemical
Procedure, shortened: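 E. coli-expressed wild-type enzyme, 20 pM final, preincubated with inhibitor for 30 min at room temperature in 50 mM sodium acetate pH 5.5, 100 mM NaCl, 0.1% BSA. Reaction ran 1 h at 30 °C with 400 μM Val-Ser-Gln-Asn-(β-naphthyl)Ala-Pro-Ile-Val, then was quenched with formic acid. Cleavage product quantified by LC-MS/MS peak area, with indinavir as internal standard.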

With COC(=O)N[C@H](C(=O)Nc1ccccc1CC[C@@H]1CN[C@H](C)[C@@H](CSc2nnc(-c3ccncc3)o2)O1)C(c1ccccc1)c1ccccc1 [Example 5, methyl N-[(1S)-1-benzhydryl-2-[[2-[2-[(2R,5R,6S)-5-methyl-6-[[5-(4-pyridyl)-1,3,4-oxadiazol-2-yl]sulfanylmethyl]morpholin-2-yl]ethyl]phenyl]amino]-2-oxo-ethyl]carbamate] as the molecule, how does the IC50 read?
Its IC50 is 4.96 nM.

How did the IC50 turn out when CC[C@@H](NC(=O)OC[C@H]1NC[C@@H](CCc2c(F)cccc2NC(=O)[C@@H](N)C(c2ccc(F)cc2)c2ccc(F)cc2)O[C@H]1C)c1ccc(F)cc1 [Example 38, 4-fluoro-N-[3-fluoro-2-(2-{(2R,5R,6S)-5-[({[(1R)-1-(4-fluorophenyl)propyl]carbamoyl}oxy)methyl]-6-methylmorpholin-2-yl}ethyl)phenyl]-β-(4-fluorophenyl)-L-phenylalaninamide] was run?
The IC50 was 4.4 nM.

Which IC50 does the source give for COC(=O)N[C@H](C(=O)Nc1ccccc1CC[C@@H]1CN[C@H](C)[C@@H](CSc2ncccc2C(F)(F)F)O1)C(c1ccccc1)c1ccccc1 [Example 20, methyl N-[(1S)-1-benzhydryl-2-[[2-[2-[(2R,5R,6S)-5-methyl-6-[[3-(trifluoromethyl)-2-pyridyl]sulfanylmethyl]morpholin-2-yl]ethyl]phenyl]amino]-2-oxo-ethyl]carbamate] here?
The IC50 was 43.3 nM.

O=C(CC(c1ccc(F)cc1)c1ccc(F)cc1)Nc1cccc(F)c1CC[C@@H]1CN[C@H](CO)[C@@H](COC(=O)NCC(F)(F)F)O1 [Example 62] was tested. Which IC50 did it give?
Its IC50 is 170 nM.

For COC(=O)N[C@H](C(=O)Nc1ccccc1CC[C@@H]1CN[C@H](C)[C@@H](COc2ccc(C#N)cc2)O1)C(c1ccccc1)c1ccccc1 [Example 2], which IC50 is on record?
The IC50 was 222 nM.

Which IC50 does the source give for N[C@H](C(=O)Nc1cccc(F)c1OC[C@@H]1CN[C@@H]2c3ccccc3C[C@@H]2O1)C(c1ccccc1)c1ccccc1 [Example 60, N-{3-fluoro-2-[(2S,4aR,9aS)-2,3,4,4a,9,9a-hexahydroindeno [2,1-b][1,4]oxazin-2-ylmethoxy]phenyl}-β-phenyl-L-phenylalaninamide] here?
Its IC50 is 610 nM.

Which IC50 does the source give for COC(=O)N[C@H](C(=O)Nc1ccccc1CC[C@@H]1CN[C@H](C)[C@@H](CSc2nnc(Cn3nccc3C)o2)O1)C(c1ccccc1)c1ccccc1 [Example 6, methyl N-[(1S)-1-benzhydryl-2-[[2-[2-[(2R,5R,6S)-5-methyl-6-[[5-[(5-methylpyrazol-1-yl)methyl]-1,3,4-oxadiazol-2-yl]sulfanylmethyl]morpholin-2-yl]ethyl]phenyl]amino]-2-oxo-ethyl]carbamate] here?
The IC50 was 5.12 nM.
